What was measured:
P. aeruginosa PA14 [1] = assay: Growth inhibition assay; format: cell-based, Pseudomonas aeruginosa; details: 100 μM, 24 h
Description: A 5% dilution of overnight culture of P. aeruginosa PA14 (OD595=1.0) containing either a positive control or the synthesized compound (0-100 μM) was inoculated into wells of a 96-well polystyrene microtiter plate (Sigma-Aldrich). The plate was incubated at 37° C. for 24 h. OD595 of the suspension culture was measured on the VICTOR ×5 multimode plate reader.

P. aeruginosa PA14 [2] = assay: Static biofilm formation assay; format: cell-based, Pseudomonas aeruginosa; details: 100 μM, 24 h, static
Description: Overnight culture of P. aeruginosa PA14 (OD595=1.0) was diluted (1:20) with the AB medium (300 mM NaCl, 50 mM MgSO4, 0.2% vitamin-free casamino acids, 10 mM potassium phosphate, 1 mM L-arginine, and 1% glucose, pH 7.5) (1:20) containing with either positive controls or synthesized compounds (0-100 μM). The dilutions were aliquoted into borosilicate bottles, and the bottles were incubated at 37° C. for 24 h without agitation. After that, OD595 of the cell suspension was measured on the VICTOR ×5 multimode plate reader. The biofilm cells attached to the bottle were washed two times with phosphate buffered saline (PBS; 137 mM NaCl, 2.7 mM KCl, 10 mM Na2HPO4, and 2 mM KH2PO4, pH 7.2) and stained with 0.1% crystal violet for […] Next, the stained biofilm cells were eluted with 100% ethyl alcohol, and OD540 was measured on the VICTOR ×5 multimode plate reader. The biofilm formation was quantified by dividing OD540 with OD595.

Structure (SMILES)	Bacterial growth inhibition (P. aeruginosa PA14 [1])	Inhibition of biofilm formation at 100 μM, in words (P. aeruginosa PA14 [2])
CCCCCCCCCC(O)CC(=O)CCc1ccc(O)c(OC)c1 (stereo not shown) [Compound 10, 5-Hydroxy-1-(4-hydroxy-3-methoxyphenyl)tetradecan-3-one]	inhibited bacterial growth significantly	decreased
CCCCCCCCC(O)CC(=O)CCc1ccc(O)c(OC)c1 (stereo not shown) [Compound 9, 5 -Hydroxy-1-(4-hydroxy-3-methoxyphenyl)tridecan-3-one]	inhibited bacterial growth significantly	decreased

Reference: US11964935B2, “Gingerol derivative having inhibitory activity against biofilm formation and pharmaceutical composition comprising same as effective ingredient for preventing or treating biofilm-caused infection symptom” (Korea University Research and Business Foundation, Sejong …, priority 2017, dated 2024)
